This note sets out measurements from ChEMBL document CHEMBL1201862, “PubChem BioAssay data set” (2004).

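Five concentrations, 48 hours, 96-well plates. GI50 = concentration required for 50% inhibition of growth.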 Active and inactive are the calls of the source. Rule as the data show it: active = GI50 up to about 1.1 µM and inactive = higher.

Among the test systems are CAKI-1; 786-0; SK-OV-3; NCI-H522; MDA-N; MCF7; HT-29; Hs-578T; NCI-H226; OVCAR-5; HCC 2998; M14; IGROV-1; EKVX; LOX IMVI; RPMI-8226; HCT-116; OVCAR-8; HOP-62; OVCAR-4.
Assay in all cases: NCI-60 cell line screen, 48 h

As for `CC(C)NC(=O)OCc1c(COC(=O)NC(C)C)n(C)c2c1ccc1ccsc12`, the GI50 in the assay on CAKI-1 was 1.81 µM (inactive); with 786-0 it was 6.46 µM (inactive); in the assay with SK-OV-3, 16.2 µM (inactive); in the assay on NCI-H522 it was 5.09 µM (inactive); in the assay on MDA-N, 12.4 µM (inactive); in the assay with MCF7, 5.16 µM (inactive). In addition, the GI50 in the assay on HT-29 was 12.1 µM (inactive); with Hs-578T, 8.87 µM (inactive); with NCI-H226, 7.41 µM (inactive); in the assay on OVCAR-5 it was 17 µM (inactive); in the assay on HCC 2998, 14.4 µM (inactive); with M14 it was 8.3 µM (inactive). For the same compound, the GI50 in the assay with IGROV-1 is 12.5 µM (inactive); in the assay with EKVX it was 17.5 µM (inactive); in the assay with LOX IMVI, 5.57 µM (inactive); in the assay with RPMI-8226 it was 2.94 µM (inactive); with HCT-116, 9.84 µM (inactive); in the assay on OVCAR-8, 9.59 µM (inactive). Moreover, the GI50 in the assay on HOP-62 was 12.7 µM (inactive); with OVCAR-4, 3.61 µM (inactive).

In the case of `Nc1nc(N)c2nc(CNc3ccc(C(=O)NC(CCCCNC(=O)c4ccccc4C(=O)O)C(=O)O)cc3)cnc2n1` (stereo not given), the GI50 in the assay with CAKI-1 was 0.01 µM (active); with 786-0, 0.01 µM (active); in the assay on SK-OV-3, > 100 µM (inactive); in the assay with NCI-H522, 5.38 µM (inactive); in the assay with MDA-N it was 0.01 µM (active); with MCF7, 0.01 µM (active). Besides, the GI50 is 0.01 µM (active) in the assay on HT-29; > 100 µM (inactive) in the assay on Hs-578T; > 100 µM (inactive) in the assay on NCI-H226; > 85.3 µM (inactive) with OVCAR-5; 0.01 µM (active) in the assay on HCC 2998; 0.01 µM (active) with M14. Moreover, the GI50 with IGROV-1 was < 0.0113 µM (active); with EKVX, > 34.4 µM (inactive); in the assay on LOX IMVI, 0.01 µM (active); with RPMI-8226, 0.01 µM (active); in the assay with HCT-116, 0.01 µM (active); in the assay with OVCAR-8, 0.01 µM (active). Also, the GI50 with HOP-62 is 0.01 µM (active); in the assay with OVCAR-4 it was > 100 µM (inactive).

With `Nc1ccc(-c2nc3cc(F)ccc3s2)cc1I`, the GI50 was 15.6 µM (inactive) in the assay on CAKI-1; 16.2 µM (inactive) in the assay with 786-0; 14.4 µM (inactive) in the assay on SK-OV-3; 13.6 µM (inactive) in the assay on NCI-H522; > 100 µM (inactive) in the assay on MDA-N; < 0.0154 µM (active) in the assay on MCF7. Besides, the GI50 in the assay on HT-29 was 0.889 µM (active); in the assay with Hs-578T, 25.2 µM (inactive); in the assay on NCI-H226, 0.979 µM (active); in the assay with OVCAR-5, 0.274 µM (active); in the assay with HCC 2998, < 0.01 µM (active); with M14, 39.3 µM (inactive). Further, the GI50 in the assay on IGROV-1 was < 0.01 µM (active); in the assay with EKVX, 9.46 µM (inactive); with LOX IMVI, 39.5 µM (inactive); in the assay on RPMI-8226, > 100 µM (inactive); in the assay on HCT-116, 18.5 µM (inactive); in the assay on OVCAR-8 it was 19.1 µM (inactive). Also, the GI50 was 10.2 µM (inactive) in the assay with HOP-62 and 0.0782 µM (active) with OVCAR-4.

Take `O=[N+]([O-])/C(C(Cl)=C(Cl)Cl)=C1/OCCS1`: the GI50 in the assay with CAKI-1 was 29.6 µM (inactive); in the assay on 786-0 it was 23 µM (inactive); with SK-OV-3, 48.6 µM (inactive); in the assay with NCI-H522 it was 32.4 µM (inactive); in the assay on MDA-N it was 41.6 µM (inactive); in the assay with MCF7, 61.4 µM (inactive). The GI50 in the assay on HT-29 was 27.5 µM (inactive); with Hs-578T, 39.7 µM (inactive); in the assay on NCI-H226, 30.2 µM (inactive); with OVCAR-5, 32.4 µM (inactive); in the assay with HCC 2998, 37.9 µM (inactive); in the assay on M14, 46.7 µM (inactive). For the same compound, the GI50 in the assay on IGROV-1 was 24.4 µM (inactive); in the assay on EKVX it was 32.1 µM (inactive); in the assay with LOX IMVI, 21.4 µM (inactive); with RPMI-8226, 22.9 µM (inactive); in the assay with HCT-116, 18 µM (inactive); with OVCAR-8, 16.8 µM (inactive). Moreover, the results for the GI50 in the assay with HOP-62 and in the assay on OVCAR-4 were 20.8 µM (inactive) and 30.4 µM (inactive), respectively.

For `COC(=O)[C@]12CCC(C)(C)C[C@H]1C1=CC[C@@H]3[C@@]4(C)CC[C@H](OC5OC(CO)C(O)C(O)C5OC5OC(CO)C(O)C(O)C5O)C(C)(C)[C@@H]4CC[C@@]3(C)[C@]1(C)CC2` (stereo not given in full), the GI50 in the assay with CAKI-1 was 8.81 µM (inactive); in the assay on 786-0, 11.2 µM (inactive); with SK-OV-3 it was 20.5 µM (inactive); in the assay with NCI-H522 it was 3.1 µM (inactive); in the assay with MDA-N it was 5.43 µM (inactive); with MCF7 it was 12 µM (inactive). For the same compound, the GI50 in the assay on HT-29 was 10.4 µM (inactive); with Hs-578T, 22.5 µM (inactive); in the assay on NCI-H226 it was 3.43 µM (inactive); in the assay on OVCAR-5, 16.6 µM (inactive); in the assay on HCC 2998 it was 14.8 µM (inactive); in the assay with M14, 3.91 µM (inactive). Moreover, the GI50 is 14.4 µM (inactive) in the assay with IGROV-1; 11.9 µM (inactive) in the assay on EKVX; 6.15 µM (inactive) with LOX IMVI; 19.3 µM (inactive) in the assay with RPMI-8226; 5.41 µM (inactive) in the assay with HCT-116; 15.9 µM (inactive) in the assay with OVCAR-8. In addition, the GI50 in the assay on HOP-62 was 12.6 µM (inactive); in the assay with OVCAR-4 it was 4.43 µM (inactive).
